Results from the supplement of paper PMC10307832.

Assays:
Assay in all cases: relative viability (nuclei count vs DMSO), 5 days (fraction); higher = more cells survive
Cediranib + Bortezomib = compound: COc1cc2c(Oc3ccc4[nH]c(C)cc4c3F)ncnc2cc1OCCCN1CCCC1 [Cediranib] + CC(C)C[C@H](NC(=O)[C@H](Cc1ccccc1)NC(=O)c1cnccn1)B(O)O [Bortezomib] (partner 0.002 µM)
In short: (§1)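 For relative viability, nuclei counts in treated wells were divided by those in vehicle wells. Lung cancer cell lines had been pin-tool dosed in 1536-well plates the day after seeding and cultured for 5 days, then fixed and stained in one step (final 0.05% Triton X-100, 1% formaldehyde, 1 ug/ml Hoechst) and imaged at 4×. Doses were one drug alone or a fixed anchor-drug dose plus five library-drug doses (not always all listed) in √10 steps, and values are duplicate-plate medians.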

Cediranib + Pictilisib = compound: COc1cc2c(Oc3ccc4[nH]c(C)cc4c3F)ncnc2cc1OCCCN1CCCC1 [Cediranib] + CS(=O)(=O)N1CCN(Cc2cc3nc(-c4cccc5[nH]ncc45)nc(N4CCOCC4)c3s2)CC1 [Pictilisib] (partner 1 µM)
In short: as §1

Cediranib + Pemetrexed = compound: COc1cc2c(Oc3ccc4[nH]c(C)cc4c3F)ncnc2cc1OCCCN1CCCC1 [Cediranib] + Nc1nc2[nH]cc(CCc3ccc(C(=O)N[C@@H](CCC(=O)O)C(=O)O)cc3)c2c(=O)[nH]1 [Pemetrexed] (partner 0.2 µM)
In short: as §1

[1] = compound: O=C(C[C@H]1NCCC[C@@H]1O)Cn1cnc2cc(Br)c(Cl)cc2c1=O (racemic) [Halofuginone] + CC(=O)c1c(C)c2cnc(Nc3ccc(N4CCNCC4)cn3)nc2n(C2CCCC2)c1=O [Palbociclib] (partner 0.5 µM)
In short: as §1

Cell Line: UMC-11
- relative viability (Cediranib + Bortezomib; first compound 0.04 µM): 1.02
- relative viability (Cediranib + Bortezomib; first compound 0.1265 µM): 0.442
- relative viability (Cediranib + Bortezomib; first compound 0.4 µM): 0.683
- relative viability (Cediranib + Bortezomib; first compound 1.265 µM): 0.628
- relative viability (Cediranib + Bortezomib; first compound 4 µM): 0.547
- relative viability (Cediranib + Pictilisib; first compound 0.04 µM): 1.01
- relative viability (Cediranib + Pictilisib; first compound 0.1265 µM): 0.316
- relative viability (Cediranib + Pictilisib; first compound 0.4 µM): 0.707
- relative viability (Cediranib + Pictilisib; first compound 1.265 µM): 0.466
- relative viability (Cediranib + Pictilisib; first compound 4 µM): 0.862
- relative viability (Cediranib + Pemetrexed; first compound 0.04 µM): 0.848
- relative viability (Cediranib + Pemetrexed; first compound 0.1265 µM): 0.752
- relative viability (Cediranib + Pemetrexed; first compound 0.4 µM): 0.738
- relative viability (Cediranib + Pemetrexed; first compound 1.265 µM): 0.824
- relative viability (Cediranib + Pemetrexed; first compound 4 µM): 0.764
- relative viability ([1]; first compound 0.001 µM): 0.359
- relative viability ([1]; first compound 0.003162 µM): 0.306
- relative viability ([1]; first compound 0.01 µM): 0.322
- relative viability ([1]; first compound 0.03162 µM): 0.316
- relative viability ([1]; first compound 0.1 µM): 0.279
